Measured values as given in patent US4963553A, “4-[(substituted) alkylcarbonyl]-4,5-dihydro- and -4,5,6,7-tetrahydro-7-[(substituted)phenyl]pyrazolo[1,5-a]pyrimidines” (American Cyanamid Co., priority 1988, dated 1990).
Counter-ions that a name gives are not always drawn.

System: mice (hypoxic environment)
Experiment: Hypoxic survival test
Assay type: in vivo, mouse (Royal Hart)
Details: intraperitoneal, 10% oxygen, 5 minutes; for responders at 100 mg/kg / responders at 200 mg/kg / responders at 10 mg/kg: Mus musculus, ip, 5 min, read-out: % Survivors; for responders at 100 mg/kg / % Survivors: 100 mg/kg
Procedure: The hypoxic survival test is a useful in vivo test for measuring the effectiveness of central nervous system-acting drugs in enhancing survival in an hypoxic environment relative to the known parasympathomimetic agent physostigmine.
Drugs are tested by intraperitoneal injection of groups of mice 30 minutes prior to placing them in an hypoxic environment and measuring survival. The rationale of this test is that drugs which enhance survival under hypoxic conditions without concomitant depression or sedative side effects, do so by enhancing brain metabolism, i.e., by improving energy supply relative to demand and so preserving normal brain function under conditions of reduced energy metabolism. Considering the dependence of the brain on a constant supply of energy, drugs which have this property may have many far-reaching therapeutic indications, including aiding recovery from stroke and closed head injury and reducing the deleterious effects of age-related central nervous system deficits.
In the hypoxic survival test, groups of 20 Royal Hart mice (6 weeks of age) were injected intraperitoneally with a test compound in saline at various doses ranging from 1 to 200 mg/kg, 30 minutes prior to placing them in an hypoxic mixture (10% oxygen, 90% […]) and measuring survival after 5 minutes.
A control group of 20 mice was injected intraperitoneally with saline (0.01 ml/g of body weight) and processed as described above.
Another group of 20 mice was injected intraperitoneally with 0.125 mg/kg of physostigmine in saline and processed as described above.

## COc1cccc(CN2CCN(CC(=O)N3CC=C(c4ccccc4)n4ncc(C#N)c43)CC2)c1 [Example 148, 4,5-Dihydro-4-[[4-[(3-methoxyphenyl)methyl]-1-piperazinyl]acetyl]-7-phenylpyrazolo[1,5-a]pyrimidine-3-carbonitrile]
  responders at 100 mg/kg: 55%

## CC1=C(c2cccc(Cl)c2)n2ncc(C#N)c2N(C(=O)CN2CCN(Cc3cccc(C(F)(F)F)c3)CC2)C1 [Example 127, 7-(3-Chlorophenyl)-4,5-dihydro-6-methyl-4-[[4-[[3-(trifluoromethyl)phenyl]methyl]-1-piperazinyl]acetyl]pyrazolo[1,5-a]pyrimidine-3-carbonitrile]
  responders at 200 mg/kg: 73%

## Cc1ccc(C)c(N2CCN(CC(=O)N3CC=C(c4cc(Cl)ccc4Cl)n4ncc(C#N)c43)CC2)c1 [Example 66, 7-(2,5-Dichlorophenyl)-4-[[4-(2,5-dimethylphenyl)-1-piperazinyl]acetyl]-4,5-dihydropyrazolo[1,5-a]pyrimidine-3-carbonitrile]
  responders at 100 mg/kg: 45%
  responders at 200 mg/kg: 80%

## CC1=C(c2ccc(Cl)cc2)n2ncc(C#N)c2N(C(=O)CN2CCN(Cc3ccccc3)CC2)C1 [Example 114, 7-(4-Chlorophenyl)-4.5-dihydro-6-methyl-4[[4-(phenylmethyl)piperazinyllacetyllpyrazolo[1,5-a]pyrimidine-3-carbonitrile, dihydrochloride]
  responders at 100 mg/kg: 25%

## N#Cc1cnn2c1N(C(=O)CN1CCN(Cc3ccccc3C(F)(F)F)CC1)CC=C2c1cccc(C(F)(F)F)c1 [Example 152, 4,5-Dihydro-7-[3-(trifluoromethyl)phenyl]-4-[[4-[[2-(trifluoromethyl)phenyl]methyl]-1-piperazinyl]acetyl]pyrazolo[1,5-]pyrimidine-3-carbonitrile dihydrochloride]
  responders at 10 mg/kg: 30%

## N#Cc1cnn2c1N(C(=O)CN1CCN(Cc3c(Cl)cccc3Cl)CC1)CCC2c1cccc(C(F)(F)F)c1 (stereo not drawn) [Example 54, 4-[[4-[(2,6-Dichlorophenyl)methyl]-1-piperazinyl]acetyl]-4,5,6,7-tetrahydro-7-[3-(trifluoromethyl)phenyl]pyrazolo[1,5-a]pyrimidine-3-carbonitrile]
  responders at 10 mg/kg: 25%

## COc1ccc(C(=O)N2CCN(CC(=O)N3CC=C(c4cccc(C(F)(F)F)c4)n4ncc(C#N)c43)CC2)cc1.Cl [Example 163, 4,5-Dihydro-4-[[4-(4-methoxybenzoyl)-1-piperazinyl]acetyl]-7-[3-(trifluoromethyl)phenyl]pyrazolo[1,5-a]pyrimidine-3-carbonitrile, monohydrochloride]
  % Survivors: 25%

## N#Cc1cnn2c1N(C(=O)CN1CCN(CCc3ccccc3)CC1)CC=C2c1cccc(C(F)(F)F)c1 [4,5-Dihydro-4-[[4-(2-phenylethyl)-1-piperazinyl]acetyl]-7-[3-trifluoromethyl)phenyl]pyrazolo[1,5-a]pyrimidine-3-carbonitrile]
  % Survivors: 90%

## NC(=O)c1cnn2c1N(C(=O)CN1CCN(Cc3ccccc3)CC1)CC=C2c1cccc(C(F)(F)F)c1 [Example 75, 4,5-Dihydro-4-[[4-(phenylmethyl)-1-piperazinyl]acetyl]-7-[3-(trifluoromethyl)phenyl]pyrazolo[1,5-a]pyrimidine-3-carboxamide]
  responders at 10 mg/kg: 15%

## CC1=C(c2cccc(C(F)(F)F)c2)n2ncc(C#N)c2N(C(=O)CN2CCN(Cc3cccc(C(F)(F)F)c3)CC2)C1 [Example 160, 4,5-Dihydro-6-methyl-7-[3-(trifluoromethyl)phenyl]-4-[[4-[[3-(trifluoromethyl)phenyl]methyl]-1-piperazinyl]acetyl]pyrazolo[1,5-a]pyrimidine-3-dihydrochloride]
  responders at 100 mg/kg: 40%

## CC1=C(c2ccc(Cl)cc2)n2ncc(C#N)c2N(C(=O)CN2CCN(Cc3cccc(C(F)(F)F)c3)CC2)C1 [Example 142, 7-(4-Chlorophenyl)-4,5-dihydro-6-methyl-4-[[4-[[3-(trifluoromethyl)phenyl]methyl-1-piperazinyl]acetyl]pyrazolo[1,5-a]pyrimidine-3-carbonitrile, dihydrochloride]
  responders at 200 mg/kg: 37.5%
